According to US20200008426A1, “ACTIVE COMPOUND COMBINATIONS” (BAYER AKTIENGESELLSCHAFT, priority 2017, published 2020):
Where two headings read alike, the source gives them in different places.

What was measured:
Alternaria solani = test: In vivo preventive test on Alternaria (tomatoes)
Procedure: The plants are then placed in an incubation cabinet at approximately 20° C. and a relative atmospheric humidity of 100%.
(§1) The test is evaluated 3 days after the inoculation.

Colletotrichum coccodes = test: In vivo preventive test on Colletotrichum (tomatoes); settings: 3 days after inoculation
Procedure: as §1

Phakopsora pachyrhizi = test: In vivo preventive test on Phakopsora (soybeans); settings: 7 days after inoculation
Puccinia triticina = test: In vivo preventive Puccinia triticina test (wheat); settings: 8 days after inoculation
Procedure: After the spray coating has been dried, the plants are sprayed with a spore suspension of Puccinia triticina.
The test is evaluated 8 days after the inoculation.

Septoria tritici = test: In vivo preventive Septoria tritici test (wheat); settings: 21 days after inoculation
Procedure: After the spray coating has been dried, the plants are sprayed with a spore suspension of Septoria tritici.
The test is evaluated 21 days after the inoculation.

Pyricularia oryzae = format: cell-based
[1] = test system: fish (Danio rerio) embryos; test: In vivo ecotoxicity screening test on fish (Danio rerio); settings: active compound alone; fish embryos, 96 h, 28.5° C.
Procedure: with ECxi the Effect Concentration (EC) of each chemical i (in ppm) causing x % effect on the ecotoxicity test endpoint.
For each compound combination, the predicted ECx value is calculated. It is then compared to an experimentally measured value. The ratio of predicted versus measured effect for the combination (thereafter called the Model Deviation Ratio or MDR) is then calculated.
The environmental effect of the compound combinations was measured experimentally in laboratory ecotoxicity screening studies with fish (Danio rerio). […] Mortality was recorded after 96 h for each tested concentration and a reference control. […] Then, the MDR values were calculated.
• Solvent: 0.5% by weight dimethyl sulfoxide
This concentrate is then diluted with water to the desired a.i. concentration, leading to a maximal solvent concentration of 0.5% by weight. The compounds alone and the combinations were tested for five increasing concentrations between 0.01 and 1000 ppm a.i., (e.g. 0.1, 1.0, 10 and 100 ppm a.i). For the combinations, compounds A and B were mixed in a weight ratio of 5:1 to 1:5 and five increasing concentrations were tested for each ratio.

Pyrenophora teres = test: In vitro-Test with Pyrenophora teres; format: cell-based
[2] = Alternaria solani, 72 h, read-out: Efficacy in % found

With CC(C)C1CCC(Cc2ccc(Cl)cc2)C1(O)Cn1cncn1 (centres unmarked) [1.012 ipconazole, ipconazole] the “Efficacy in % found” value (Alternaria solani; Table A1, 2.5 ppm a.i., 3 days after inoculation) was 28%, the “Efficacy in % found” value (Alternaria solani; Table A1, 5 ppm a.i., 3 days after inoculation) was 67% and the “Efficacy in % found” value (Alternaria solani; Table A1, 10 ppm a.i., 3 days after inoculation) was 88%.

With OC(Cc1ccccc1Cl)(Cn1nc[nH]c1=S)C1(Cl)CC1 (centres unmarked) [1.018 prothioconazole, prothioconazole] the “Efficacy in % found” value (Colletotrichum coccodes; Table B1, 2.5 ppm a.i.) was 38%, the “Efficacy in % found” value (Colletotrichum coccodes; Table B1, 5 ppm a.i.) was 59% and the “Efficacy in % found” value (Colletotrichum coccodes; Table B1, 10 ppm a.i.) was 79%.

For CCCN(CC)CC1COC2(CCC(C(C)(C)C)CC2)O1 (centres unmarked) [1.020 spiroxamine, spiroxamine], the “Efficacy in % found” value (Alternaria solani; Table A1, 25 ppm a.i., 3 days after inoculation) was 13%, the “Efficacy in % found” value (Alternaria solani; Table A1, 50 ppm a.i., 3 days after inoculation) was 38% and the “Efficacy in % found” value (Alternaria solani; Table A1, 100 ppm a.i., 3 days after inoculation) was 49%. For the same compound, the “Efficacy in % found” value (Colletotrichum coccodes; Table B1, 25 ppm a.i.) was 33%, the “Efficacy in % found” value (Colletotrichum coccodes; Table B1, 50 ppm a.i.) was 44% and the “Efficacy in % found” value (Colletotrichum coccodes; Table B1, 100 ppm a.i.) was 49%. The “Efficacy in % found” value (Phakopsora pachyrhizi; Table C1, 25 ppm a.i.) was 23%, the “Efficacy in % found” value (Phakopsora pachyrhizi; Table C1, 50 ppm a.i.) was 50% and the “Efficacy in % found” value (Phakopsora pachyrhizi; Table C1, 100 ppm a.i.) was 75%.

Compound CC(C)(C)C(O)(CCc1ccc(Cl)cc1)Cn1cncn1 (centres unmarked) [1.021 tebuconazole, tebuconazole] has a pest or weed control at 2.5 ppm (Alternaria solani; Alternaria solani, 72 h, Table A1, 2.5 ppm a.i., 3 days after inoculation, read-out: Efficacy in % found) of 5%, a pest or weed control at 5 ppm (Alternaria solani; Alternaria solani, 72 h, Table A1, 5 ppm a.i., 3 days after inoculation, read-out: Efficacy in % found) of 21% and a pest or weed control at 10 ppm (Alternaria solani; Alternaria solani, 72 h, Table A1, 10 ppm a.i., 3 days after inoculation, read-out: Efficacy in % found) of 74%. The “Efficacy in % found” value (Colletotrichum coccodes; Table B1, 2.5 ppm a.i.) was 44%, the “Efficacy in % found” value (Colletotrichum coccodes; Table B1, 5 ppm a.i.) was 44% and the “Efficacy in % found” value (Colletotrichum coccodes; Table B1, 10 ppm a.i.) was 64%.

For Cn1cc(C(=O)Nc2ccc(F)cc2-c2ccc(Cl)c(Cl)c2)c(C(F)F)n1 [2.002 bixafen, bixafen], the “Efficacy in % found” value (Phakopsora pachyrhizi; Table C2, 2.5 ppm a.i.) was 0%, the “Efficacy in % found” value (Phakopsora pachyrhizi; Table C2, 5 ppm a.i.) was 0% and the “Efficacy in % found” value (Phakopsora pachyrhizi; Table C2, 10 ppm a.i.) was 15%.

Work on O=C(NCCc1ncc(C(F)(F)F)cc1Cl)c1ccccc1C(F)(F)F [2.005 fluopyram, fluopyram] yielded a pest or weed control at 5 ppm (Alternaria solani; Alternaria solani, 72 h, Table A2, 5 ppm a.i., 3 days after inoculation, read-out: Efficacy in % found) of 53%, a pest or weed control at 10 ppm (Alternaria solani; Alternaria solani, 72 h, Table A2, 10 ppm a.i., 3 days after inoculation, read-out: Efficacy in % found) of 61% and a pest or weed control at 20 ppm (Alternaria solani; Alternaria solani, 72 h, Table A2, 20 ppm a.i., 3 days after inoculation, read-out: Efficacy in % found) of 84%.

In the case of Cc1nn(C)c(F)c1C(=O)Nc1ccccc1C(C)CC(C)C (centres unmarked) [2.017 penflufen, penflufen], the “Efficacy in % found” value (Alternaria solani; Table A2, 5 ppm a.i., 3 days after inoculation) was 11%, the “Efficacy in % found” value (Alternaria solani; Table A2, 10 ppm a.i., 3 days after inoculation) was 26% and the “Efficacy in % found” value (Alternaria solani; Table A2, 20 ppm a.i., 3 days after inoculation) was 47%. The “Efficacy in % found” value (Phakopsora pachyrhizi; Table C2, 5 ppm a.i.) was 8%, the “Efficacy in % found” value (Phakopsora pachyrhizi; Table C2, 10 ppm a.i.) was 43% and the “Efficacy in % found” value (Phakopsora pachyrhizi; Table C2, 20 ppm a.i.) was 83%.

For CON=C(C(=O)OC)c1ccccc1CON=C(C)c1cccc(C(F)(F)F)c1 [3.020 trifloxystrobin, trifloxystrobin], the pest or weed control at 1 ppm (Alternaria solani; Alternaria solani, 72 h, Table A2, 1 ppm a.i., 3 days after inoculation, read-out: Efficacy in % found) was 24%, the pest or weed control at 2 ppm (Alternaria solani; Alternaria solani, 72 h, Table A2, 2 ppm a.i., 3 days after inoculation, read-out: Efficacy in % found) was 42% and the pest or weed control at 4 ppm (Alternaria solani; Alternaria solani, 72 h, Table A2, 4 ppm a.i., 3 days after inoculation, read-out: Efficacy in % found) was 53%.

With O=C(Nc1ccccc1)N(Cc1ccc(Cl)cc1)C1CCCC1 [4.005 pencycuron, pencycuron] the pest or weed control at 25 ppm (Alternaria solani; Alternaria solani, 72 h, Table A1, 25 ppm a.i., 3 days after inoculation, read-out: Efficacy in % found) was 5%, the pest or weed control at 50 ppm (Alternaria solani; Alternaria solani, 72 h, Table A1, 50 ppm a.i., 3 days after inoculation, read-out: Efficacy in % found) was 21% and the pest or weed control at 100 ppm (Alternaria solani; Alternaria solani, 72 h, Table A1, 100 ppm a.i., 3 days after inoculation, read-out: Efficacy in % found) was 33%. For the same compound, the “Efficacy in % found” value (Colletotrichum coccodes; Table B1, 25 ppm a.i.) was 33%, the “Efficacy in % found” value (Colletotrichum coccodes; Table B1, 50 ppm a.i.) was 33% and the “Efficacy in % found” value (Colletotrichum coccodes; Table B1, 100 ppm a.i.) was 33%.

N#Cc1c(Cl)c(Cl)c(Cl)c(C#N)c1Cl [5.004 chlorothalonil, chlorothalonil] was tested, and the pest or weed control at 25 ppm (Alternaria solani; Alternaria solani, 72 h, 25 ppm a.i., tomatoes, 3 days after inoculation, read-out: Efficacy in % found) was 13%, the pest or weed control at 50 ppm (Alternaria solani; Alternaria solani, 72 h, 50 ppm a.i., tomatoes, 3 days after inoculation, read-out: Efficacy in % found) was 33% and the “Efficacy in % found” value (Colletotrichum coccodes; Table B2, 25 ppm a.i.) was 8%. For the same compound, the “Efficacy in % found” value (Colletotrichum coccodes; Table B2, 50 ppm a.i.) was 8%.

Work on N#Cc1c[nH]cc1-c1cccc2c1OC(F)(F)O2 [13.001 fludioxonil, fludioxonil] yielded a pest or weed control at 5 ppm (Alternaria solani; [2]) of 77%, a pest or weed control at 10 ppm (Alternaria solani; [2]) of 85% and a pest or weed control at 20 ppm (Alternaria solani; [2]) of 95%.

With Cc1nn(C)c(F)c1C(=O)Nc1ccccc1C(C)CC(C)C (centres unmarked) [Example 2.017, penflufen] the “Efficacy in % found” value (Puccinia triticina; 20 ppm a.i.) was 56%, the “Efficacy in % found” value (Puccinia triticina; 40 ppm a.i.) was 89% and the “Efficacy in % found” value (Puccinia triticina; 80 ppm a.i.) was 100%. For the same compound, the “Efficacy in % found” value (Septoria tritici; 20 ppm a.i.) was 29%, the “Efficacy in % found” value (Septoria tritici; 40 ppm a.i.) was 0% and the “Efficacy in % found” value (Septoria tritici; 80 ppm a.i.) was 0%. The Efficacy % (Pyricularia oryzae; 1 ppm) was 44%, the Efficacy % (Pyricularia oryzae; 5 ppm) was 91% and the “Ecotoxicity LC50-96 h found” value [1] was 0.62 ppm a.i.

For CC1CC(C)(C)c2cccc(NC(=O)c3cn(C)nc3C(F)F)c21 (centres unmarked) [Example 2.027, 3-(difluoromethyl)-1-methyl-N-(1,1,3-trimethyl-2,3-dihydro-1H-inden-4-yl)-1H-pyrazole-4-carboxamide], the pest or weed control at 1 ppm (Alternaria solani; [2]) was 0%, the pest or weed control at 2 ppm (Alternaria solani; [2]) was 3% and the pest or weed control at 4 ppm (Alternaria solani; [2]) was 11%. For the same compound, the pest or weed control at 62.5 ppm (Septoria tritici; Zymoseptoria tritici, 504 h, read-out: Efficacy in % found, 62.5 ppm a.i.) was 25%, the pest or weed control at 125 ppm (Septoria tritici; Zymoseptoria tritici, 504 h, read-out: Efficacy in % found, 125 ppm a.i.) was 63% and the Efficacy % (Pyrenophora teres; 4 ppm) was 43%. The Efficacy % (Pyrenophora teres; 20 ppm) was 62%, the “Efficacy in % found” value (Phakopsora pachyrhizi; Table C2, 1 ppm a.i.) was 50% and the “Efficacy in % found” value (Phakopsora pachyrhizi; Table C2, 2 ppm a.i.) was 95%. The “Efficacy in % found” value (Phakopsora pachyrhizi; Table C2, 4 ppm a.i.) was 100%.

mancozeb [5.013 mancozeb] was tested, and the “Efficacy in % found” value (Alternaria solani; 12.5 ppm a.i., tomatoes, 3 days after inoculation) was 28%, the “Efficacy in % found” value (Alternaria solani; 25 ppm a.i., tomatoes, 3 days after inoculation) was 33% and the “Efficacy in % found” value (Alternaria solani; 50 ppm a.i., tomatoes, 3 days after inoculation) was 77%. The “Efficacy in % found” value (Colletotrichum coccodes; Table B2, 12.5 ppm a.i.) was 0%, the “Efficacy in % found” value (Colletotrichum coccodes; Table B2, 25 ppm a.i.) was 0% and the “Efficacy in % found” value (Colletotrichum coccodes; Table B2, 50 ppm a.i.) was 0%.
